Values joined by “and” are separate entries in the source; they are usually repeats but may differ in a detail not shown here. Identical values can stand only once. Toxic doses and inconclusive results are not listed. Cut-off read from the data, not from the text of the source: active = T/C of 150% or more; inactive = T/C below 125%.
Test system: L1210 leukemia ip in BDF1 mice, survival T/C
Experiment: NCI In Vivo Anticancer Drug Screen. Data for tumor model L1210 Leukemia (intraperitoneal) in B6D2F1 (BDF1) mice
Conditions: endpoint: mean survival time, higher = longer survival
Outline: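 Antitumor effect is assessed in tumor-bearing animals. Survival in the compound arm is compared with a vehicle-dosed control arm and expressed as their quotient.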

[1] = dose: 100.0 mg/kg/injection, schedule: Q04DX003 (ip), vehicle: saline with Tween-80
[2] = dose: 200.0 mg/kg/injection, schedule: Q04DX003 (ip), vehicle: saline with Tween-80
[3] = dose: 100.0 mg/kg/injection, schedule: Q01DX001 (ip), vehicle: saline
[4] = dose: 200.0 mg/kg/injection, schedule: Q01DX001 (ip), vehicle: saline
[5] = dose: 400.0 mg/kg/injection, schedule: Q01DX001 (ip), vehicle: saline
[6] = dose: 100.0 mg/kg/injection, schedule: Q04DX003 (ip), vehicle: saline
[7] = dose: 200.0 mg/kg/injection, schedule: Q04DX003 (ip), vehicle: saline
[8] = dose: 400.0 mg/kg/injection, schedule: Q04DX003 (ip), vehicle: saline
[9] = dose: 100.0 mg/kg/injection, schedule: Q01DX009 (ip), vehicle: Klucel (hydroxypropylcellulose) (HPC)
[10] = dose: 200.0 mg/kg/injection, schedule: Q01DX009 (ip), vehicle: Klucel (hydroxypropylcellulose) (HPC)
[11] = dose: 400.0 mg/kg/injection, schedule: Q01DX009 (ip), vehicle: Klucel (hydroxypropylcellulose) (HPC)
[12] = dose: 25.0 mg/kg/injection, schedule: Q01DX009 (ip), vehicle: saline

Measured: T/C

CCC(C)c1ccc(-c2ccc(OC)cc2)cc1 (stereo not given)
inactive: [1] 86 % of control | [2] 86 % of control

O=C1c2ccccc2C(=O)c2c(O)c([N+](=O)[O-])cc([N+](=O)[O-])c21
inactive: [3] 98 % of control | [4] 104 % of control | [5] 100 % of control

Cc1ccc(S(=O)(=O)NN=C(C2=CCCCC2)C2=CCCCC2)cc1
inactive: [6] 94 % of control | [7] 93 % of control | [8] 93 % of control

COc1cc(/C=C2/CCCCC2=O)ccc1O
inactive: dose: 100.0 mg/kg/injection, schedule: Q04DX003 (ip), vehicle: other 93 % of control | dose: 200.0 mg/kg/injection, schedule: Q04DX003 (ip), vehicle: other 100 % of control | dose: 400.0 mg/kg/injection, schedule: Q04DX003 (ip), vehicle: other 94 % of control

CCOC(=O)c1cnc2ccc(OC)cc2c1
inactive: dose: 50.0 mg/kg/injection, schedule: Q01DX009 (ip), vehicle: saline + alcohol 111 % of control | dose: 100.0 mg/kg/injection, schedule: Q01DX009 (ip), vehicle: saline + alcohol 93 % of control | [6] 96 % of control | dose: 200.0 mg/kg/injection, schedule: Q01DX009 (ip), vehicle: saline + alcohol 98 % of control | [7] 105 % of control | dose: 400.0 mg/kg/injection, schedule: Q01DX009 (ip), vehicle: saline + alcohol 93 % of control | [8] 94 % of control

CCCCC(=O)N/N=C/c1ccc(NC(C)=O)cc1
inactive: [3] 102 % of control | [4] 102 % of control | [5] 102 % of control

CC(=O)Nc1ccc2ccccc2c1-c1c(NC(C)=O)ccc2ccccc12
inactive: dose: 25.0 mg/kg/injection, schedule: Q04DX002 (ip), vehicle: saline with Tween-80 97 % of control | dose: 50.0 mg/kg/injection, schedule: Q04DX002 (ip), vehicle: saline with Tween-80 90 % of control

CC1=C/C(=N\N=C2/C=C(C)CC(C)(C)C2)CC(C)(C)C1
inactive: [9] 95 % of control | [10] 105 % of control | [11] 100 % of control

CC(=O)Nc1ccc2ncccc2c1[N+](=O)[O-]
inactive: dose: 100.0 mg/kg/injection, schedule: Q01DX001 (ip), vehicle: other 102 % of control | dose: 200.0 mg/kg/injection, schedule: Q01DX001 (ip), vehicle: other 100 % of control | dose: 400.0 mg/kg/injection, schedule: Q01DX001 (ip), vehicle: other 100 % of control

CCCCCCCCCCCCCCCC(=O)Nc1ccc(C(=O)C[n+]2ccc3c(NC(=O)CCC(=O)OC)cccc3c2)cc1
inactive: dose: 75.0 mg/kg/injection, schedule: Q01DX001 (ip), vehicle: other 86 % of control | dose: 150.0 mg/kg/injection, schedule: Q01DX001 (ip), vehicle: other 95 % of control

CC1(c2ccco2)NC(=O)N(Cl)C1=O (stereo not given)
inactive: dose: 6.0 mg/kg/injection, schedule: Q04DX003 (ip), vehicle: saline 93 % of control | dose: 12.0 mg/kg/injection, schedule: Q04DX003 (ip), vehicle: saline 101 % of control | [12] 87 % of control | dose: 32.0 mg/kg/injection, schedule: Q04DX003 (ip), vehicle: saline 95 % of control | dose: 50.0 mg/kg/injection, schedule: Q01DX009 (ip), vehicle: saline 98 % of control | dose: 50.0 mg/kg/injection, schedule: Q04DX003 (ip), vehicle: saline 103 % of control | dose: 100.0 mg/kg/injection, schedule: Q01DX009 (ip), vehicle: saline 88 % of control | [6] 97 % of control and 103 % of control

CCCCCCCCCC(=O)CCCCCC
inactive: [9] 96 % of control | dose: 100.0 mg/kg/injection, schedule: Q04DX003 (ip), vehicle: Klucel (hydroxypropylcellulose) (HPC) 95 % of control | [10] 98 % of control | dose: 200.0 mg/kg/injection, schedule: Q04DX003 (ip), vehicle: Klucel (hydroxypropylcellulose) (HPC) 103 % of control | [11] 107 % of control | dose: 400.0 mg/kg/injection, schedule: Q04DX003 (ip), vehicle: Klucel (hydroxypropylcellulose) (HPC) 93 % of control

NC(=O)c1cn(C2OC(CO)C(O)C2O)c2nc(Cl)nc(N)c12 (stereo not given)
inactive: dose: 3.12 mg/kg/injection, schedule: Q01DX009 (ip), vehicle: saline 96 % of control | dose: 6.25 mg/kg/injection, schedule: Q01DX009 (ip), vehicle: saline 106 % of control | dose: 12.5 mg/kg/injection, schedule: Q01DX009 (ip), vehicle: saline 101 % of control | [12] 106 % of control | [7] 115 % of control

COC1CCC(/C(C#N)=C/c2ccco2)CC1 (stereo not given)
inactive: dose: 100.0 mg/kg/injection, schedule: Q04DX002 (ip), vehicle: saline with Tween-80 97 % of control and 89 % of control | dose: 200.0 mg/kg/injection, schedule: Q04DX002 (ip), vehicle: saline with Tween-80 94 % of control and 99 % of control | dose: 800.0 mg/kg/injection, schedule: Q04DX002 (ip), vehicle: saline with Tween-80 103 % of control

Nc1c2ccccc2cc2ccccc12
inactive: dose: 50.0 mg/kg/injection, schedule: Q01DX009 (ip), vehicle: saline with Tween-80 91 % of control | dose: 100.0 mg/kg/injection, schedule: Q01DX009 (ip), vehicle: saline with Tween-80 97 % of control | [1] 96 % of control and 112 % of control | dose: 200.0 mg/kg/injection, schedule: Q01DX009 (ip), vehicle: saline with Tween-80 110 % of control | [2] 91 % of control and 97 % of control | dose: 400.0 mg/kg/injection, schedule: Q04DX003 (ip), vehicle: saline with Tween-80 88 % of control

COc1ccc(/C=C(\S)C(=O)O)cc1
inactive: [3] 96 % of control | [4] 118 % of control | dose: 1040.0 mg/kg/injection, schedule: Q01DX001 (ip), vehicle: saline 111 % of control

COC(=O)c1c(C(N)=O)n[nH]c1C1OC(COCc2ccccc2)C(OCc2ccccc2)C1OCc1ccccc1 (stereo not given)
inactive: dose: 100.0 mg/kg/injection, schedule: Q01DX005 (ip), vehicle: saline with Tween-80 102 % of control | dose: 200.0 mg/kg/injection, schedule: Q01DX005 (ip), vehicle: saline with Tween-80 100 % of control

CNC(=O)C1C2CCC(C2)C1C(=O)NC (stereo not given)
inactive: dose: 75.0 mg/kg/injection, schedule: Q04DX003 (ip), vehicle: saline 97 % of control | [6] 96 % of control | dose: 150.0 mg/kg/injection, schedule: Q04DX003 (ip), vehicle: saline 95 % of control | [7] 96 % of control | dose: 300.0 mg/kg/injection, schedule: Q04DX003 (ip), vehicle: saline 97 % of control | [8] 96 % of control

O=NN(CC(=O)O)Cc1ccc(Cl)cc1
inactive: dose: 100.0 mg/kg/injection, schedule: Q01DX Z (ip), vehicle: saline 102 % of control | dose: 200.0 mg/kg/injection, schedule: Q01DX Z (ip), vehicle: saline 102 % of control

N#CCc1ccc2[nH]c3c(c2c1)CCCC3
inactive: dose: 100.0 mg/kg/injection, schedule: Q04DX002 (ip), vehicle: Klucel (hydroxypropylcellulose) (HPC) 106 % of control | dose: 200.0 mg/kg/injection, schedule: Q04DX002 (ip), vehicle: Klucel (hydroxypropylcellulose) (HPC) 92 % of control | dose: 400.0 mg/kg/injection, schedule: Q04DX002 (ip), vehicle: Klucel (hydroxypropylcellulose) (HPC) 92 % of control

Source: PubChem BioAssay AID248 (DTP/NCI, 2004)
